For 22 molecules, half-life and T1/2 results are on record in ChEMBL document CHEMBL1127994, “Substrate specificity of immobilized penicillin-G acylase towards penicillin and cephalosporin derivatives was studied. The phenylacetyl moiety can be altered at the -position with several small substituents. Depending on polarity and size of the substituent, enzyme activity decreases or increases. …” (Bioorg Med Chem Lett, 1994).

One data set has as its system penicillin-G acylase. Description: (§1) Hydrolysis half life using immobilized penicillin-G acylase. In kind it is ADME. The conditions noted are these: immobilized penicillin-G acylase.
Data set [1] is described as follows: as §1. In kind it is ADME.

Regarding `CC1=C(C(=O)O)N2C(=O)[C@@H](NC(=O)c3ccccc3)[C@H]2SC1`, the half-life (in general, the time needed for the level to fall by half in the phase considered) in the data set with penicillin-G acylase was above 10000 min.

In the data set on penicillin-G acylase, `CC1=C(C(=O)O)N2C(=O)[C@@H](NC(=O)Cc3ccsc3)[C@H]2SC1` had a half-life of 65 min.

As to `CC1=C(C(=O)O)N2C(=O)[C@@H](NC(=O)Cc3ccccc3)[C@H]2[S+]([O-])C1` (stereo in doubt; form 1), the T1/2 in data set [1] turned out to be 200 min.

In the case of `CC1(C)S[C@@H]2[C@H](NC(=O)C(Br)c3ccccc3)C(=O)N2[C@H]1C(=O)O` (some centres not stated), the half-life in the data set on penicillin-G acylase amounted to 80 min. In data set [1], `CC1=C(C(=O)O)N2C(=O)[C@@H](NC(=O)Cc3ccccc3)[C@H]2[S+]([O-])C1` (stereo in doubt; form 2) registered a T1/2 of 33 min. For the molecule `CC1(C)[C@H](C(=O)O)N2C(=O)[C@@H](NC(=O)Cc3ccccc3)[C@H]2[S+]1[O-]` (some centres not stated), the half-life in the data set on penicillin-G acylase amounted to 90 min.

As for `CC1(C)[C@H](C(=O)O)N2C(=O)[C@@H](NC(=O)Cc3ccccc3)[C@H]2S1(=O)=O`, the half-life in the data set on penicillin-G acylase worked out at 50 min. The same measure, in the same setting: next, `CCC(C(=O)N[C@@H]1C(=O)N2[C@@H]1SC(C)(C)[C@@H]2C(=O)O)c1ccccc1` (some centres not stated): 3400 min; `CC1(C)S[C@@H]2[C@H](NC(=O)[C@H](N)c3ccc(O)cc3)C(=O)N2[C@H]1C(=O)O` [AMOXICILLIN]: 12 min; `CC1=C(C(=O)O)N2C(=O)[C@@H](NC=O)[C@H]2[S+]([O-])C1` (some centres not stated): above 10000 min. Take `C=CC1=C(C(=O)O)N2C(=O)[C@@H](NC(=O)Cc3ccccc3)[C@H]2SC1`: the half-life with penicillin-G acylase was found to be 55 min.

In the data set on penicillin-G acylase, `CC1=C(C(=O)O)N2C(=O)[C@@H](NC(=O)C(Br)c3ccccc3)[C@H]2[S+]([O-])C1` (some centres not stated) returned a half-life of 370 min. Molecule `CC1=C(C(=O)O)N2C(=O)[C@@H](NC(=O)COc3ccccc3)[C@H]2[S+]([O-])C1` (some centres not stated) displayed a half-life in the data set on penicillin-G acylase of 1420 min. `CC1=C(C(=O)O)N2C(=O)[C@@H](NC(=O)Cc3ccccc3)[C@H]2SC1`: the half-life in the data set on penicillin-G acylase is 45 min. For the molecule `O=C(Cc1ccccc1)N[C@@H]1C(=O)N2C(C(=O)O)=CCS[C@H]12`, the half-life with penicillin-G acylase was determined as 25 min. With `Cn1nnnc1SCC1=C(C(=O)O)N2C(=O)[C@@H](NC(=O)Cc3ccccc3)[C@H]2SC1`, in the data set on penicillin-G acylase, the half-life came to 50 min. For the molecule `CC1(C)S[C@@H]2[C@H](NC(=O)Cc3ccccc3)C(=O)N2[C@H]1C(=O)O` [PENICILLIN G], the half-life in the data set on penicillin-G acylase came out at 25 min.

`CC1=C(C(=O)O)N2C(=O)[C@@H](NC(=O)C(O)c3ccccc3)[C@H]2SC1` (some centres not stated): the half-life in the data set with penicillin-G acylase amounted to 5 min. Take `C/C=C/C1=C(C(=O)O)N2C(=O)[C@@H](NC(=O)Cc3ccccc3)[C@H]2SC1`: the half-life in the data set with penicillin-G acylase is 50 min.

In the data set on penicillin-G acylase, `CC1(C)S[C@@H]2[C@H](NC(=O)[C@H](N)c3ccccc3)C(=O)N2[C@H]1C(=O)O` [AMPICILLIN] came in with a half-life of 5 min. In the data set with penicillin-G acylase, `CC1(C)S[C@@H]2[C@H](NC(=O)C(Cc3ccccc3)c3ccccc3)C(=O)N2[C@H]1C(=O)O` (some centres not stated) had a half-life of 7000 min. For the molecule `CC1=C(C(=O)O)N2C(=O)[C@@H](NC(=O)COc3ccccc3)[C@H]2SC1`, in the data set on penicillin-G acylase, the half-life turned out to be 1280 min.
